Reference: patent US20030109418A1, “Methods for identifying compounds for inhibition of neoplastic lesions, and pharmaceutical compositions containing such compounds” (priority 1999, published 2003)
Like-named read-outs stand apart in the source and are kept apart here.

Columns and labels:
[1] = system: SW-480 colon adenocarcinoma cells; test: Apoptosis fold induction protocol (DNA fragmentation ELISA); details: cell line not given
[2] = molecular target: T1, classic PDE2 (Peak B) from SW480 (Homo sapiens, UniProt O00408); test: Inhibition of classic PDE2 Peak B isolated with ethylene glycol buffers; format: biochemical
T1 construct: endogenous in cells; host or cells: SW480 cells, non-FPLC DEAE column with 30% ethylene glycol buffers
T1 sequence (O00408 whole entry): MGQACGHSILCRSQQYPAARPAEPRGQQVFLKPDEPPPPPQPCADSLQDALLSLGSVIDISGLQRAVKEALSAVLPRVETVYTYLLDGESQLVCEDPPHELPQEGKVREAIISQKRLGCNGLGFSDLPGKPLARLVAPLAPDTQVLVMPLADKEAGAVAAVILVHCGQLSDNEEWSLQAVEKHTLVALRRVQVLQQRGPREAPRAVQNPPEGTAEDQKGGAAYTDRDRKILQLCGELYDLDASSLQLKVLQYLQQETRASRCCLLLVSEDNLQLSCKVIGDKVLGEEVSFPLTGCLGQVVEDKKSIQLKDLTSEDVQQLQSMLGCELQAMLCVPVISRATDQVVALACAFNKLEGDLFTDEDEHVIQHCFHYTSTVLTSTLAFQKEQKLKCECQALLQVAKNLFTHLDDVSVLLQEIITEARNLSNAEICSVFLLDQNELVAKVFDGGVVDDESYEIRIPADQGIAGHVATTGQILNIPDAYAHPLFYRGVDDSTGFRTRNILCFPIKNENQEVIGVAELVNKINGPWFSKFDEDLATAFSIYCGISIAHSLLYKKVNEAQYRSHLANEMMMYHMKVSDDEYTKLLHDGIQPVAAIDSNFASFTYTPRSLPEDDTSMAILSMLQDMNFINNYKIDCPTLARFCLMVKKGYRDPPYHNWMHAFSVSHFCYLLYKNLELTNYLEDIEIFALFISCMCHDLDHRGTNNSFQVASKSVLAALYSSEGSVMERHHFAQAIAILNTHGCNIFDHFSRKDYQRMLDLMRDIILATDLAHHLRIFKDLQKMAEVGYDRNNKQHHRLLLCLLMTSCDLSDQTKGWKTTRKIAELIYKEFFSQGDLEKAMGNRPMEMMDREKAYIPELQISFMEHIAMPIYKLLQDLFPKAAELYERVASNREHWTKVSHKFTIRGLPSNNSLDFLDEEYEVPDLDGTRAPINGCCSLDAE
Description: A second method used to isolate classic PDE2 from SW480 was done using a non-FPLC DEAE column procedure described above (see Section IA) with the modification that the buffers contained 30% ethylene glycol, 10 mM TLCK and 3.6 mM β-mercaptoethanol. The addition of these reagents to the buffers causes a shift in the elution profile (see FIG. 25) from low to high sodium acetate so that peak A moves from 40 to 150 mM, peak B from 75 to 280 mM and peak C from 200 to 500 mM Na acetate (see FIG. 25).

[3] = molecular target: novel cGMP-specific PDE peak B from SW480 cells (Homo sapiens); test: cGMP hydrolysis inhibition, novel PDE peak B (Section IA) from SW480; format: biochemical; details: Section IA Peak B, cGMP hydrolysis, 0.25 μM 3H-cGMP
novel cGMP-specific PDE peak B from SW480 cells (Homo sapiens), sequence (O00408 2-941): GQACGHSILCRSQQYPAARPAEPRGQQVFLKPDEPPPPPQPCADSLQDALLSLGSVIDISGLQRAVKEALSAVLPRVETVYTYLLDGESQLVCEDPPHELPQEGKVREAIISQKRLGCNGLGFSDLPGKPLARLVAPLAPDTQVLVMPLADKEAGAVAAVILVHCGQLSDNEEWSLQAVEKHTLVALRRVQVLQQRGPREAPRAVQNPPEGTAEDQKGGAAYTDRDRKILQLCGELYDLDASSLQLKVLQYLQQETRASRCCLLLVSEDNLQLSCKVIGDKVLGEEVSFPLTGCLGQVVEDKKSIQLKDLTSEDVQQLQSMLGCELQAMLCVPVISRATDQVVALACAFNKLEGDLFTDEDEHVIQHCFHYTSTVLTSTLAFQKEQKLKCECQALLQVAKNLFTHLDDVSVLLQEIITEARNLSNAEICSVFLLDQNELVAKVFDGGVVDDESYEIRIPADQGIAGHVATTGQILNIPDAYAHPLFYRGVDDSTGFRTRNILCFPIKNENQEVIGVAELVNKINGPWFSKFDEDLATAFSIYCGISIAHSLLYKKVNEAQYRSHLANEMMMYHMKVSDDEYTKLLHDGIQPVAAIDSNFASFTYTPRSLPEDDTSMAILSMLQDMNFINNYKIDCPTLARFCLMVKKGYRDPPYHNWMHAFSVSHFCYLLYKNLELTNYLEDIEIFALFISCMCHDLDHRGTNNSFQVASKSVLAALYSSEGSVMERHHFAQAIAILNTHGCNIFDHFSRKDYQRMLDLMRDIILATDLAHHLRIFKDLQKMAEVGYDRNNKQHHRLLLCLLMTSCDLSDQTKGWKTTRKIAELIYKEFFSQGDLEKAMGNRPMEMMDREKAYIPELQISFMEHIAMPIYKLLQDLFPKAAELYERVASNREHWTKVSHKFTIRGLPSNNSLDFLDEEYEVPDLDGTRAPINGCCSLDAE

[4] = molecular target: T2, PDE peak A (PDE5) from SW480 cells (Homo sapiens, UniProt O76074); test: cGMP hydrolysis inhibition, PDE peak A from SW480; format: biochemical
T2 construct: endogenous in cells; host or cells: SW480 colon cancer cells, DEAE-Trisacryl M fraction

[5] = system: PDE4 purified from human colon HT-29 cultured tumor cells; test: PDE4 inhibition assay; format: biochemical; details: HT-29 cell enzyme
[6] = system: HT-29 colon adenocarcinoma cells; test: Apoptosis by DNA fragmentation assay in HT-29; format: cell-based, human; on Apoptosis: key: −: Not active; +: Slightly active; ++: Moderately active; +++: Strongly active; ++++: Highly active
[7] = molecular target: T3, purified cyclooxygenase (Type 1, COX-I) from ram seminal vesicles (Ovis aries, UniProt P05979); test: COX inhibition assay, purified cyclooxygenase; format: biochemical; details: for COX Inhibition: qualitative activity profile; for inhibition at 100 µM: read-out: Cyclooxygenase inhibitory activity, % Inhibition at 100 μM
T3 construct: using purified cyclooxygenase from ram seminal vesicles as described previously; tissue Cayman Chemical, Ann Arbor, Mich; (named in the general protocol only); host or cells: ram seminal vesicles
T3 sequence (P05979 25-600): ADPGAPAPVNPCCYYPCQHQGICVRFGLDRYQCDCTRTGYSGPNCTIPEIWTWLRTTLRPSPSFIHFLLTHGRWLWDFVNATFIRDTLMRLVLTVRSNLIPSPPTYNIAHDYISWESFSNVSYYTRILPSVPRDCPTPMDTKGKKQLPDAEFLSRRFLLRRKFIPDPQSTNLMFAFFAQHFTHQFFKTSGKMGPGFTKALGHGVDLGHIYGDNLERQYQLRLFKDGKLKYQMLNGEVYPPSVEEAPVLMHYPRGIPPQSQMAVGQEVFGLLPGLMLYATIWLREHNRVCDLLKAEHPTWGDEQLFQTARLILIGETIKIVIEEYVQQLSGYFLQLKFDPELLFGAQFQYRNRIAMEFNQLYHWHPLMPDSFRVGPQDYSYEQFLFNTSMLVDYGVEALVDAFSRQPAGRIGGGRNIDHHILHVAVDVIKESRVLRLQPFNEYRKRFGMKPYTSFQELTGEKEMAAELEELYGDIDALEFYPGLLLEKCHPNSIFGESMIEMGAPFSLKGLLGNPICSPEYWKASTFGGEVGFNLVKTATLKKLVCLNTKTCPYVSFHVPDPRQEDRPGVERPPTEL

[8] = molecular target: T4, cGMP binding sites of the GST-cGB-PDE5 protein (Homo sapiens, UniProt O76074); test: cGMP binding assay with GST-cGB-PDE5 fusion protein; details: 3H-cGMP 2 μM
T4 construct: made in house; host or cells: E. coli BL21 (DE3)

[9] = system: cGMP PDE purified from human colon HT-29 cultured tumor cells; test: cGMP PDE inhibition assay; format: biochemical; details: for PDE Inhibition: qualitative activity profile; for IC50: read-out: IC50 for inhibition of cGMP PDE, HT-29 cell enzyme
[10] = molecular target: novel cGMP-specific PDE peak B from SW480 cells (Homo sapiens, UniProt O00408); test: cGMP hydrolysis inhibition, novel PDE peak B (Section IA) from SW480; format: biochemical
novel cGMP-specific PDE peak B from SW480 cells, sequence (O00408 2-941): as the sequence (O00408 2-941) above

Colo 205 = test: Growth inhibition, neutral red assay, Colo 205; format: cell-based, human; details: Homo sapiens, COLO 205; neutral red assay (Schmid et al.)
Description: (§1) Compound I's activity is not confined to activity against colon cancer cell lines or animal models of colon cancer. It has a broad range of anti-neoplastic effects in various neoplastic cell lines. Various types of human cancer cell lines were propagated under sterile conditions in RPMI 1640 medium with 10% fetal bovine serum, 2 mM L-glutamine and sodium bicarbonate. To determine growth inhibitory effects of Compound I, cells were seeded in 96-well plates at a density of 1000 cells per well. Twenty-four hours after plating, the cells were dosed with various concentrations of the free base of Compound I solubilized in DMSO (final concentration 0.1%). The effect of the drug on tumor cell growth was determined using the neutral red cytotoxicity assay following five days of continuous treatment. Neutral red is a dye that is selectively taken up by viable cells by an ATP-dependent transport mechanism.

PC-3 = test: Growth inhibition, neutral red assay, PC-3; format: cell-based, human; details: Homo sapiens, PC-3; neutral red assay (Schmid et al.); read-out: IC50 (μM), Human Prostate Carcinoma PC3
Description: as §1

[11] = system: premalignant lesions in mouse mammary gland organ culture; test: Mammary gland organ culture model; format: cell-based; details: qualitative activity profile; further: key: −: Not active; +: Slightly active; ++: Moderately active; +++: Strongly active; ++++: Highly active
Description: Test compounds identified by the above methods can be tested for antineoplastic activity by their ability to inhibit the incidence of pre-neoplastic lesions in a mammary gland organ culture system. This mouse mammary gland organ culture technique has been successfully used by other investigators to study the effects of known antineoplastic agents such as certain NSAIDs, retinoids, tamoxifen, selenium, and certain natural products, and is useful for validation of the screening method of the present invention.
For example, female BALB/c mice can be treated with a combination of estradiol and progesterone daily, in order to prime the glands to be responsive to hormones in vitro. The animals are sacrificed, and thoracic mammary glands are excised aseptically and incubated for ten days in growth media supplemented with insulin, prolactin, hydrocortisone, and aldosterone. DMBA (7,12-dimethylbenz(a)anthracene) is added to medium to induce the formation of premalignant lesions. Fully developed glands are then deprived of prolactin, hydrocortisone, and aldosterone, resulting in the regression of the glands but not the pre-malignant lesions.
The test compound is dissolved in DMSO and added to the culture media for the duration of the culture period. At the end of the culture period, the glands are fixed in 10% formalin, stained with alum carmine, and mounted on glass slides. The incidence of forming mammary lesions is the ratio of the glands with mammary lesions to […]. The incidence of mammary lesions in test compound treated glands is compared with that of the untreated glands.
The extent of the area occupied by the mammary lesions can be quantitated by projecting an image of the gland onto a digitation pad. The area covered by the gland is traced on the pad and considered as 100% of the area. The space covered by each of the non-regressed structures is also outlined on the digitization pad and quantitated by the computer.
Mammary gland organ culture experiment were performed as previously described (Mehta and Moon, Cancer Research, 46: 5832-5835, 1986). […] The data support the hypothesis that cyclooxygenase inhibition is not necessary for the anti-neoplastic properties of desired compounds.

[12] = system: HT-29 human colon carcinoma cell line; test: Growth inhibition, SRB assay, HT-29; format: cell-based; set-up: Growth Inhibition: key to the marks not given beside the values
[13] = system: SW-480 colon adenocarcinoma cells
[14] = system: peak B's from SW480, HTB-26, and LnCAP; test: cGMP PDE activity of peak B's isolated by FPLC; format: biochemical; details: 100 nM inhibitor
Description: The novel Peak B was also isolated from two other neoplastic cell lines, a breast cancer cell line, HTB-26 and a prostate cancer cell line, LnCAP by a procedure similar to the one above used to isolate it from SW480. The protocol was modified in several respects. To provide even greater reproducibility to allow comparison of different cell lines, a Pharmacia AKTA FPLC was used to control sample loading and elution on an 18 mL DEAE TrisAcryl M column. SW840 was run by this same procedure multiple times to provide a reference of peak B. 200-400 million cells of SW480 were used for the profiles. 70 million cells of LnCAP were used for a profile (see FIGS. 22 and 23), and in a separate experiment 32 million cells of HTB-26 were used for a profile (see FIGS. 20 and 21). After re-suspending cells in homogenization buffer, samples were manually homogenized. FPLC buffer A was 8 mM TRIS-acetate, 5 mM Mg acetate, 0.1 mM EDTA, pH 7.5 and buffer B was 8 mM TRIS-acetate, 5 mM Mg acetate, 0.1 mM EDTA, 1 M Na acetate, pH 7.5. Supernatants were loaded onto the column at 1 mL per minute, followed by a wash with 60 mL buffer A at 1 mL per minute. A gradient was run from 0-15% buffer B in 60 mL, 15-50% buffer B in 60 mL, and 50-100% buffer B in 16 mL. During the gradient 1.5 mL fractions were collected.

Row | Compound | IC50 [5] [µM] | COX-I inhibition (FIG. 5) [7] | COX Inhibition [7] | inhibition at 100 µM [7] [%] | competition with cGMP in binding of GST-cGB-PDE5 [8] | cGMP PDE inhibitory activity, % Inhibition at 10 μM [9] [%] | PDE Inhibition [9] | IC50 [9] [µM] | Growth-inhibitory activity, % Inhibition at 100 μM [12] [%] | also measured
1 | CCCCCC[C@@H]([C@@H](C)O)n1cnc2c(N)ncnc21 (racemic) [EHNA] |  |  |  |  |  |  |  |  |  | Apoptosis-inducing activity, Fold induction at 100 μM ([1]; 100 μM): <2.0 fold; IC50 ([2]; 2.0 μM cAMP substrate, read-out: IC50, cAMP PDE activity in Peak B): 3.8 µM; IC50 ([2]; read-out: IC50, cAMP PDE activity in Peak B with rolipram, 2.0 μM cAMP substrate, addition of 10 μM rolipram): 2.5 µM; IC50 ([2]; read-out: IC50, cGMP PDE activity in Peak B, 2 μM cGMP substrate): 1.6 µM; IC50 [3]: 3.7 µM; IC50 ([4]; cGMP hydrolysis, 0.25 μM 3H-cGMP): > 100 µM
2 | COc1cc(C=C2C(C)=C(CC(=O)O)c3cc(F)ccc32)cc(OC)c1OC [Compound B, (Z)-5-Fluoro-2-methyl-1-(3,4,5-trimethoxybenzylidene)-3-acetic acid] | 58 | neither test compound B and E significantly inhibit COX-I | − | < 25 | do not bind to the cGMP binding sites of PDE5 | <25 | +++ | 18 |  | fold induction at 100 µM ([1]; Homo sapiens, SW480, read-out: Apoptosis-inducing activity, Fold induction at 100 μM, 100 μM): > 2; EC50 ([6]; Homo sapiens, HT-29, 48 hours): ~175 µM
3 | COc1cc(/C=C2/C(C)=C(CC(=O)NCc3ccccc3)c3cc(F)ccc32)cc(OC)c1OC [Compound E, (Z)-5-Fluoro-2-methyl-1-(3,4,5-trimethoxybenzylidene)-3-indenylacetamide, N-benzyl] | > 25 | neither test compound B and E significantly inhibit COX-I | − | < 25 | do not bind to the cGMP binding sites of PDE5 | 75 | ++++ | 0.08 |  | competitive (with cGMP) binding to PDE peak B [10]: competitively (with cGMP) binds; Ratio (IC50 Peak A/Peak B) [4]: 1.0; competitive (with cGMP) binding to PDE 5 (peak A) [4]: does competitively (with cGMP) bind; IC50 (Colo 205): 1.62 µM; IC50 (PC-3): 0.9 µM
4 | CCN(CC)CCSC12CC(=O)OC1(C)/C(=C/c1ccc(S(C)(=O)=O)cc1)c1ccc(F)cc12 (racemic) [A, rac-threo-(E)-1-(N,N′-diethylaminoethanethio)-1-(butan-1′,4′-olido)-[3′,4′: 1,2]-6-fluoro-2-methyl-3-(p-methylsulfonylbenzylidene)-indan] |  |  | − |  |  | <25 | − |  | 68 | Mammary Gland Organ Culture [11]: ++; Apoptosis ([6]; qualitative activity profile): ++; Cyclooxygenase inhibitory activity, % Inhibition at 100 μM ([7]; 100 μM): <25%; Growth Inhibition ([12]; qualitative activity profile): +++; Apoptosis-inducing activity, Fold induction at 100 μM [13]: <2.0 fold
5 | O=C(O)C1CCN(c2nc(NCc3ccc4c(c3)OCO4)c3cc(Cl)ccc3n2)CC1 [Compound E4021] |  |  |  |  | do not bind to the cGMP binding sites of PDE5 |  |  |  | <50 | IC50 ([12]; HT-29 treated for 6 days, SRB assay, read-out: Growth inhibition (IC50)): > 100 µM; sensitivity of peak B's cGMP PDE activity [14]: resistant
